Results as given in patent publication US9789089B2 (Gilead Sciences, Inc., priority 2013, dated 2017).
Where two headings read alike, the source gives them in different places.

How the values were obtained:
[1] = system: HIV-IIIb; assay: Test A: Antiviral Assay in MT4 Cells; assay type: cell-based, HIV-1; conditions: read-out: % inhibition at 6 μM
Protocol: Test A: Antiviral Assay in MT4 Cells
(§1) For the antiviral assay, 40 μL of 1× test concentration of 3-fold serially diluted compound in culture medium with 10% FBS was added to each well of a 384-well plate (10 concentrations) in quadruplicate. MT-4 cells were next mixed with HIV-IIIb at an m.o.i of 0.003 for 1 hour, after which time 35 μL of virus/cell mixture (2000 cells) was immediately added to each well containing 40 μL of diluted compound. The plates were then incubated at 37° C. for 5 days. After 5 days of incubation, 25 μl of 2× concentrated CellTiter-Glo™ Reagent (catalog #G7571, Promega Biosciences, Inc., Madison, Wis.) was added to each well containing MT-4 cells. Cell lysis was carried out by incubating at room temperature for 10 min and then chemiluminescence was read.

[2] = Test B: Cytotoxicity assay; assay type: cell-based; conditions: human, uninfected MT-4 cells, same protocol as Test A, CellTiter-Glo
Protocol: as §1
Test B:Cytotoxicity assay
Compound cytotoxicity and the corresponding CC50 values was determined using the same protocol as described in the antiviral assay (Test A) except that uninfected cells were used.

[3] = Human immunodeficiency virus 1, IIIB, MT4, 120 h

With O=C(Cn1nc(C(F)(F)F)c2c1CCCC2)N[C@@H](Cc1ccccc1)c1nccn1-c1ccccc1 [Compound 1E, (S)—N-(2-phenyl-1-(1-phenyl-1H-imidazol-2-yl)ethyl)-2-(3-(trifluoromethyl)-4,5,6,7-tetrahydro-1H-indazol-1-yl)acetamide] the inhibition at 6 µM [1, 3] was 83% and the CC50 at 5 days [2] was 21.9 µM.

For CC(C)CCn1ccnc1[C@H](Cc1ccccc1)NC(=O)Cn1nc(C(F)(F)F)c2c1CCCC2 [Compound 2, (S)—N-(1-(1-isopentyl-1H-imidazol-2-yl)-2-phenylethyl)-2-(3-(trifluoromethyl)-4,5,6,7-tetrahydro-1H-indazol-1-yl)acetamide], the inhibition at 6 µM ([1]; Human immunodeficiency virus 1, MT4, 120 h, percent inhibition of virus-induced cell killing at 6 μM drug concentration, from the dose response curve, MT-4 cells infected with HIV-IIIb, 5 days) was 6% and the CC50 at 5 days [2] was 27.8 µM.

In the case of COc1ccccc1Cn1ccnc1[C@H](Cc1ccccc1)NC(=O)Cc1c[nH]c2ccc(O)cc12 [Compound 3C, (S)-2-(5-hydroxy-1H-indol-3-yl)-N-(1-(1-(2-methoxybenzyl)-1H-imidazol-2-yl)-2-phenylethyl)acetamide], the inhibition at 6 µM [1, 3] is reported as 19% and the CC50 at 5 days [2] is reported as 37.1 µM.

COc1ccc(-n2ccnc2[C@H](Cc2cc(F)cc(F)c2)NC(=O)Cn2nc(C(F)(F)F)c3c2CCCC3)cc1 [Compound 5F, (S)—N-(2-(3,5-difluorophenyl)-1-(1-(4-methoxyphenyl)-1H-imidazol-2-yl)ethyl)-2-(3-(trifluoromethyl)-4,5,6,7-tetrahydro-1H-indazol-1-yl)acetamide] gave an inhibition at 6 µM [1, 3] of 79% and a CC50 at 5 days [2] of 13.5 µM.

Compound COc1ccc(-n2ccnc2[C@@H](Cc2cc(F)cc(F)c2)NC(=O)Cn2nc(C(F)(F)F)c3c2CCCC3)cc1 [Compound 6B, (R)—N-(2-(3,5-difluorophenyl)-1-(1-(4-methoxyphenyl)-1H-imidazol-2-yl)ethyl)-2-(3-(trifluoromethyl)-4,5,6,7-tetrahydro-1H-indazol-1-yl)acetamide] has an inhibition at 6 µM [1, 3] of 4% and a CC50 at 5 days [2] of 12 µM.

In the case of COc1ccc(-n2ccnc2[C@H](Cc2cc(F)cc(F)c2)NC(=O)Cc2c[nH]c3ccc(O)cc23)cc1 [Compound 7, (S)—N-(2-(3,5-difluorophenyl)-1-(1-(4-methoxyphenyl)-1H-imidazol-2-yl)ethyl)-2-(5-hydroxy-1H-indol-3-yl)acetamide], the inhibition at 6 µM [1, 3] is reported as 121%.

For COc1ccc(-n2ccnc2[C@@H](Cc2cc(F)cc(F)c2)NC(=O)Cc2c[nH]c3ccc(O)cc23)cc1 [Compound 8, (R)—N-(2-(3,5-difluorophenyl)-1-(1-(4-methoxyphenyl)-1H-imidazol-2-yl)ethyl)-2-(5-hydroxy-1H-indol-3-yl)acetamide], the inhibition at 6 µM [1, 3] was 6%.

Work on Cc1ccccc1-c1scnc1C(Cc1cc(F)cc(F)c1)NC(=O)Cc1c[nH]c2ccc(O)cc12 (centres unmarked) [Compound 13E, N-(2-(3,5-difluorophenyl)-1-(5-(o-tolyl)thiazol-4-yl)ethyl)-2-(5-hydroxy-1H-indol-3-yl)acetamide] yielded an inhibition at 6 µM [1, 3] of 93%.

In the case of O=C(Cc1c[nH]c2ccc(O)cc12)N[C@@H](Cc1cc(F)cc(F)c1)c1nocc1-c1ccc(Cl)cc1 [Compound 26, (S)—N-(1-(4-(4-chlorophenyl)isoxazol-3-yl)-2-(3,5-difluorophenyl)ethyl)-2-(5-hydroxy-1H-indol-3-yl)acetamide], the inhibition at 6 µM [1, 3] is reported as 106%.

Compound O=C(Cc1c[nH]c2ccc(O)cc12)N[C@H](Cc1cc(F)cc(F)c1)c1nocc1-c1ccc(Cl)cc1 [Compound 28B, (R)—N-(1-(4-(4-chlorophenyl)isoxazol-3-yl)-2-(3,5-difluorophenyl)ethyl)-2-(5-hydroxy-1H-indol-3-yl)acetamide] has an inhibition at 6 µM [1, 3] of 3%.

Cn1cnc(C(Cc2cc(F)cc(F)c2)NC(=O)Cc2c[nH]c3ccc(O)cc23)c1-c1ccc(Cl)cc1 (centres unmarked) [Compound 31, N-(1-(5-(4-chlorophenyl)-1-methyl-1H-imidazol-4-yl)-2-(3,5-difluorophenyl)ethyl)-2-(5-hydroxy-1H-indol-3-yl)acetamide] gave an inhibition at 6 µM [1, 3] of 75%.

Compound Cc1cc2ncn(CC(=O)NC(Cc3cc(F)cc(F)c3)c3ncoc3-c3ccc(Cl)cc3)c2cc1C (centres unmarked) [Compound 33H, N-(1-(5-(4-chlorophenyl)oxazol-4-yl)-2-(3,5-difluorophenyl)ethyl)-2-(5,6-dimethyl-1H-benzo[d]imidazol-1-yl)acetamide] has a CC50 at 5 days [2] of 31.8 µM.
